Results reported in ChEMBL document CHEMBL1152996, “Tetracycline resistance gene tet(W) in the pathogenic bacterium Clostridium difficile” (2008).
Converted amounts (≈) assume the structure as drawn.

Experiments:
Format in all cases: functional
Clostridioides difficile [1] = assay: Antibacterial activity against Clostridium difficile CD37 harboring tet(M) gene from Clostridium difficile CD5
Clostridioides difficile [2] = assay: Antibacterial activity against Clostridium difficile clinical isolate expressing tet(M) gene by Etest
Clostridioides difficile [3] = assay: Antibacterial activity against Clostridium difficile CD5 expressing tet(W) gene

Question: For `CN(C)[C@@H]1C(O)=C(C(N)=O)C(=O)[C@@]2(O)C(O)=C3C(=O)c4c(O)cccc4[C@@](C)(O)[C@H]3C[C@@H]12` [TETRACYCLINE], which MIC (Clostridioides difficile [1]) is on record?
Answer: 8 µg/mL (≈ 18 µM)

Question: What about the MIC (Clostridioides difficile [2]) of the same compound?
Answer: ≥ 8 µg/mL

Question: And the MIC (Clostridioides difficile [3])?
Answer: 8 µg/mL (≈ 18 µM)
